Measurements: US10669242B2 (priority 2016, dated 2020)

Each compound was assayed against T1, recombinant glucosyltransferase domain of C. difficile Toxin B/TcdB (Clostridioides difficile, UniProt P18177) (assay: biochemical).
T1 construct: 6-His (C); purchased R&D Systems 6246-GT
T1 sequence (P18177 1-543): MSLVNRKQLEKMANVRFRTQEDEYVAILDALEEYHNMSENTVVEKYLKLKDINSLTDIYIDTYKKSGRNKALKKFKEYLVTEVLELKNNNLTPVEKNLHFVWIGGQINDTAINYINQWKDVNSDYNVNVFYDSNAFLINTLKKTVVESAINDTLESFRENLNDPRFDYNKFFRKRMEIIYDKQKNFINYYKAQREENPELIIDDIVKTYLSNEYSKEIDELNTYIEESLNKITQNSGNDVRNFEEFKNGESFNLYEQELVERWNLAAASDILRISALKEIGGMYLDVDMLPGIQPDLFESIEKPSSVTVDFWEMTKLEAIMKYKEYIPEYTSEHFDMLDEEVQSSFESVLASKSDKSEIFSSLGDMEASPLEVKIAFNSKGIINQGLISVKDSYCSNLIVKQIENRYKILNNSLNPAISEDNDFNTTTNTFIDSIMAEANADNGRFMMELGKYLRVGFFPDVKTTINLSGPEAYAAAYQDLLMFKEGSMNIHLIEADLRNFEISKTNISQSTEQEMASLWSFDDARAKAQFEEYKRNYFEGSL

`O=C(Nc1cc(Cl)ccn1)c1ccc(CN2C(=O)c3ccc(Cl)cc3NC(=O)[C@H]2Cc2cccnc2)cc1` [Example 4r, (R)-4-((8-chloro-2,5-dioxo-3-(pyridin-3-ylmethyl)-2,3-dihydro-1H-benzo[e][1,4]diazepin-4(5H)-yl)methyl)-N-(4-chloropyridin-2-yl)benzamide] and `Cc1ccc(NC(=O)c2ccc(CN3C(=O)c4ccc(Cl)cc4NC(=O)[C@H]3Cc3cccnc3)cc2)nc1` [Example 4n, (R)-4-((8-chloro-2,5-dioxo-3-(pyridin-3-ylmethyl)-2,3-dihydro-1H-benzo[e][1,4]diazepin-4(5H)-yl)methyl)-N-(5-methylpyridin-2-yl)benzamide] cannot be ordered by IC50: under 100 nM for the first, under 100 nM for the second.

`O=C(O)c1ccc(CN2C(=O)c3ccc(Cl)cc3NC(=O)[C@H]2Cc2ccccn2)cc1NC(=O)C1CCCCC1` [Example 22c] and `CN(C)CCC(=O)Nc1cc(CN2C(=O)c3ccc(Cl)cc3NC(=O)[C@H]2Cc2ccccn2)ccc1C(=O)O` [Example 22k] fall in the same range of IC50: 100 to 999 nM for the first, 100 to 999 nM for the second.

First: CN(C(=O)c1ccc(CN2C(=O)c3ccc(Cl)cc3NC(=O)[C@H]2Cc2cccnc2)cc1)c1ccccn1 [Example 4m, (R)-4-((8-chloro-2,5-dioxo-3-(pyridin-3-ylmethyl)-2,3-dihydro-1H-benzo[e][1,4]diazepin-4(5H)-yl)methyl)-N-methyl-N-(pyridin-2-yl)benzamide]
Second: COc1ccc2c(c1)NC(=O)[C@@H](Cc1cccnc1)N(Cc1ccc(C(=O)Nc3ccccn3)cc1)C2=O [Example 4p, (R)-4-((8-methoxy-2,5-dioxo-3-(pyridin-3-ylmethyl)-2,3-dihydro-1H-benzo[e][1,4]diazepin-4(5H)-yl)methyl)-N-(pyridin-2-yl)benzamide]
The IC50 of the first is higher: 100 to 999 nM for the first, under 100 nM for the second.

Compared with `Cc1ccc2c(c1)NC(=O)[C@@H](Cc1ccc(Cl)c(Cl)c1)N(Cc1ccc(C(=O)O)cc1)C2=O` [Example 1e], `O=C(O)c1ccc(CN2C(=O)c3ccc(Cl)cc3NC(=O)[C@H]2Cc2ccccn2)cc1Cl` [Example 7a, (R)-2-Chloro-4-((8-chloro-2,5-dioxo-3-(pyridin-2-ylmethyl)-2,3-dihydro-1H-benzo[e][1,4]diazepin-4(5H)-yl)methyl)benzoic Acid] is lower in IC50: 10000 to 35000 nM for the first, 100 to 999 nM for the second. The second is the more potent here.

First: Cc1ccc(NC(=O)c2ccc(CN3C(=O)c4ccc(Cl)cc4NC(=O)[C@@H]3Cc3cscn3)cc2)nc1 [Example 35a, (S)-4-((8-Chloro-2,5-dioxo-3-(thiazol-4-ylmethyl)-2,3-dihydro-1H-benzo[e][1,4]diazepin-4(5H)-yl)methyl)-N-(5-methylpyridin-2-yl)benzamide]
Second: Cc1ccc(NC(=O)c2ccc(CN3C(=O)c4ccc(Cl)cc4NC(=O)C3Cc3cnccn3)cc2)nc1 (centres unmarked) [Example 5x, 4-((8-chloro-2,5-dioxo-3-(pyrazin-2-ylmethyl)-2,3-dihydro-1H-benzo[e][1,4]diazepin-4(5H)-yl)methyl)-N-(5-methylpyridin-2-yl)benzamide]
The IC50 of the first is higher: 100 to 999 nM for the first, under 100 nM for the second.

`COc1ccc(NC(=O)c2ccc(CN3C(=O)c4ccc(Cl)cc4NC(=O)[C@H]3Cc3ccccn3)s2)nc1` [Example 4br, (R)-5-((8-chloro-2,5-dioxo-3-(pyridin-2-ylmethyl)-2,3-dihydro-1H-benzo[e][1,4]diazepin-4(5H)-yl)methyl)-N-(5-methoxypyridin-2-yl)thiophene-2-carboxamide] and `O=C(Nc1ccccn1)c1ccc(CN2C(=O)c3ccc(Cl)cc3NC(=O)[C@H]2Cc2ccccn2)s1` [Example 4bq, (R)-5-((8-chloro-2,5-dioxo-3-(pyridin-2-ylmethyl)-2,3-dihydro-1H-benzo[e][1,4]diazepin-4(5H)-yl)methyl)-N-(pyridin-2-yl)thiophene-2-carboxamide] fall in the same range of IC50: 100 to 999 nM for the first, 100 to 999 nM for the second.

Compared with `Cc1cccnc1C(=O)c1ccc(CN2C(=O)c3ccc(Cl)cc3NC(=O)[C@H]2Cc2ccccn2)cc1F` [Example 11i, (R)-8-chloro-4-(3-fluoro-4-(3-methylpicolinoyl)benzyl)-3-(pyridin-2-ylmethyl)-3,4-dihydro-1H-benzo[e][1,4]diazepine-2,5-dione], `O=C(O)c1ccc(CN2C(=O)c3ccc(Cl)cc3NC(=O)[C@H]2Cc2ccccn2)cc1F` [Example 1i] is lower in IC50: 1000 to 10000 nM for the first, 100 to 999 nM for the second.

Compared with `O=C1Nc2cc(Cl)ccc2C(=O)N(Cc2ccc(C(=O)n3ccc4cccnc43)c(Cl)c2)[C@@H]1Cc1ccccn1` [Example 4ab, (R)-8-chloro-4-(3-chloro-4-(1H-pyrrolo[2,3-b]pyridine-1-carbonyl)benzyl)-3-(pyridin-2-ylmethyl)-3,4-dihydro-1H-benzo[e][1,4]diazepine-2,5-dione], `O=C(O)c1ccc(CN2C(=O)c3ccc(Cl)cc3NC(=O)[C@H]2Cc2ccccn2)cc1-c1ccncc1` [Example 8a, (R)-4-((8-Chloro-2,5-dioxo-3-(pyridin-2-ylmethyl)-2,3-dihydro-1H-benzo[e][1,4]diazepin-4(5H)-yl)methyl)-2-(pyridin-4-yl)benzoic Acid] is higher in IC50: under 100 nM for the first, 100 to 999 nM for the second.

`O=C1Nc2cc(Cl)ccc2C(=O)N(C[C@H]2CC[C@H](C(=O)c3ccccn3)CC2)[C@@H]1Cc1ccccn1` [Example 11c, (R)-8-chloro-4-((4-picolinoylcyclohexyl)methyl)-3-(pyridin-2-ylmethyl)-3,4-dihydro-1H-benzo[e][1,4]diazepine-2,5-dione] and `COc1cnc(NC(=O)[C@H]2CC[C@H](CN3C(=O)c4ccc(Cl)cc4NC(=O)[C@H]3Cc3ccccn3)CC2)nc1` [Example 5ax, (1R,4r)-4-(((R)-8-chloro-2,5-dioxo-3-(pyridin-2-ylmethyl)-2,3-dihydro-1H-benzo[e][1,4]diazepin-4(5H)-yl)methyl)-N-(5-methoxypyrimidin-2-yl)cyclohexanecarboxamide] cannot be ordered by IC50: under 100 nM for the first, under 100 nM for the second.

Compared with `Cc1nsc(NC(=O)c2ccc(CN3C(=O)c4ccc(Cl)cc4NC(=O)[C@H]3Cc3ccccn3)cc2)n1` [Example 4bk, (R)-4-((8-chloro-2,5-dioxo-3-(pyridin-2-ylmethyl)-2,3-dihydro-1H-benzo[e][1,4]diazepin-4(5H)-yl)methyl)-N-(3-methyl-1,2,4-thiadiazol-5-yl)benzamide], `Cc1cnc(NC(=O)c2ccc(CN3C(=O)c4ccc(Cl)cc4NC(=O)[C@H]3Cc3ccccn3)cc2)s1` [Example 4bw, (R)-4-((8-chloro-2,5-dioxo-3-(pyridin-2-ylmethyl)-2,3-dihydro-1H-benzo[e][1,4]diazepin-4(5H)-yl)methyl)-N-(5-methylthiazol-2-yl)benzamide] is lower in IC50: 10000 to 35000 nM for the first, under 100 nM for the second. The second is the more potent here.

First: C[C@@H]1C(=O)Nc2cc(Cl)ccc2C(=O)N1Cc1ccc(C(=O)Nc2ccc(C(F)(F)F)cn2)c(-c2ccc3c(c2)OCO3)c1 [Example 54a]
Second: COc1cc(CN2C(=O)c3ccc(Cl)cc3NC(=O)[C@H]2Cc2ccccn2)ccc1C(=O)Nc1ccc(F)cn1 [Example 5aq, (R)-4-((8-chloro-2,5-dioxo-3-(pyridin-2-ylmethyl)-2,3-dihydro-1H-benzo[e][1,4]diazepin-4(5H)-yl)methyl)-N-(5-fluoropyridin-2-yl)-2-methoxybenzamide]
The IC50 of the first is higher: 1000 to 10000 nM for the first, under 100 nM for the second.

`Cc1ccc(NC(=O)c2ccc(CN3C(=O)c4ccc(NC(=O)c5cccnc5)cc4NC(=O)[C@H]3C)cc2)nc1` [Example 18e, (R)-N-(3-methyl-4-(4-((5-methylpyridin-2-yl)carbamoyl)benzyl)-2,5-dioxo-2,3,4,5-tetrahydro-1H-benzo[e][1,4]diazepin-8-yl)nicotinamide] and `COCCC(=O)Nc1ccc2c(c1)NC(=O)[C@@H](C)N(Cc1ccc(C(=O)Nc3ccc(C)cn3)cc1)C2=O` [Example 18a, (R)-4-((8-(3-Methoxypropanamido)-3-methyl-2,5-dioxo-2,3-dihydro-1H-benzo[e][1,4]diazepin-4(5H)-yl)methyl)-N-(5-methylpyridin-2-yl)benzamide] fall in the same range of IC50: 1000 to 10000 nM for the first, 1000 to 10000 nM for the second.

`O=C(Nc1ccc(CN2C(=O)c3ccc(Cl)cc3NC(=O)[C@H]2Cc2ccccn2)cc1)c1cc(Cl)ccn1` [Example 26h] and `Cn1ccnc1C(=O)Nc1ccc(CN2C(=O)c3ccc(Cl)cc3NC(=O)[C@H]2Cc2ccccn2)cc1` [Example 27i] fall in the same range of IC50: 100 to 999 nM for the first, 100 to 999 nM for the second.

`COc1ccc(-c2cc(CN3C(=O)c4ccc(Cl)cc4NC(=O)[C@H]3Cc3ccccn3)ccc2C(=O)O)cc1` [Example 8f, (R)-5-((8-chloro-2,5-dioxo-3-(pyridin-2-ylmethyl)-2,3-dihydro-1H-benzo[e][1,4]diazepin-4(5H)-yl)methyl)-4′-methoxy-[1,1′-biphenyl]-2-carboxylic acid] and `CC(=O)Nc1cccc(-c2cc(CN3C(=O)c4ccc(Cl)cc4NC(=O)[C@H]3Cc3ccccn3)ccc2C(=O)O)c1` [Example 8q, (R)-3′-acetamido-5-((8-chloro-2,5-dioxo-3-(pyridin-2-ylmethyl)-2,3-dihydro-1H-benzo[e][1,4]diazepin-4(5H)-yl)methyl)-[1,1′-biphenyl]-2-carboxylic acid] fall in the same range of IC50: 100 to 999 nM for the first, 100 to 999 nM for the second.

First: O=C(NS(=O)(=O)c1ccccc1)c1ccc(CN2C(=O)c3ccc(Cl)cc3NC(=O)[C@H]2Cc2cccnc2)cc1 [Example 15a, (R)-4-((8-Chloro-2,5-dioxo-3-(pyridin-3-ylmethyl)-2,3-dihydro-1H-benzo[e][1,4]diazepin-4(5H)-yl)methyl)-N-(phenylsulfonyl)benzamide]
Second: CC(=NO)NC(=O)c1ccc(CN2C(=O)c3ccc(Cl)cc3NC(=O)[C@H]2Cc2cccnc2)cc1 [Example 4bv, (R)-4-((8-chloro-2,5-dioxo-3-(pyridin-3-ylmethyl)-2,3-dihydro-1H-benzo[e][1,4]diazepin-4(5H)-yl)methyl)-N-(1-(hydroxyimino)ethyl)benzamide]
The IC50 of the first is higher: 1000 to 10000 nM for the first, 100 to 999 nM for the second.

First: Cc1ccc(NC(=O)c2ccc(CN3C(=O)c4ccc(Cl)cc4NC(=O)[C@H]3CCN3CCN(C)CC3)cc2)nc1 [Example 10d, (R)-4-((8-chloro-3-(2-(4-methylpiperazin-1-yl)ethyl)-2,5-dioxo-2,3-dihydro-1H-benzo[e][1,4]diazepin-4(5H)-yl)methyl)-N-(5-methylpyridin-2-yl)benzamide]
Second: Cc1cc(CN2C(=O)c3ccc(Cl)cc3NC(=O)[C@H]2Cc2ccccn2)ccc1C(=O)O [Example 7b, (R)-4-((8-chloro-2,5-dioxo-3-(pyridin-2-ylmethyl)-2,3-dihydro-1H-benzo[e][1,4]diazepin-4(5H)-yl)methyl)-2-methylbenzoic acid]
The IC50 of the first is higher: 1000 to 10000 nM for the first, 100 to 999 nM for the second.
